Experimental data as given in patent US8901305B2, “Aryl lactam kinase inhibitors” (Bristol-Myers Squibb Company, priority 2012, dated 2014).

Columns and labels:
GST-Xa-hAAK1 = biological target: T1, GST-Xa-hAAK1 (Homo sapiens, UniProt Q2M2I8); test: AAK1 kinase assay; assay type: biochemical; conditions: ATP 22 μM, 3 hours at room temperature
T1 construct: made in house
Protocol: The assays were performed in U-bottom 384-well plates. […] The reactions were initiated by the combination of bacterially expressed, GST-Xa-hAAK1 with substrates and test compounds. The reactions were incubated at room temperature for 3 hours and terminated by adding 60 μl of 35 mM EDTA buffer to each sample. The reactions were analyzed on the Caliper LabChip 3000 (Caliper, Hopkinton, Mass.) by electrophoretic separation of the fluorescent substrate and phosphorylated product. […] Compounds were dissolved at 10 mM in dimethylsulfoxide (DMSO) and evaluated at eleven concentrations. IC50 values were derived by non-linear regression analysis.

[1] = biological target: T2, AAK1 (full length human) with AP2M1 in HEK293F cells (Homo sapiens, UniProt Q2M2I8); test: HEK281 cell-based assay (phospho-mu2 Western blot in transfected HEK293F cells); conditions: 3 hours, inhibition of mu2 phosphorylation
T2 construct: expressed in transfected cells; host or cells: HEK293F
Protocol: HEK293F cells were cultured in media containing DMEM (Gibco, cat. #11965), 10% FBS (SAFC Biosciences, cat. #12103C), 1×GPS (glutamine, penicillin and streptomycin). On day one, cells were plated on a 10 cm dish so that they are ˜80% confluent at time of transfection. Roughly 12 million cells were in a 10 cm dish at time of transfection. On day two, each dish was transfected with 48 ug DNA and 144 ul Lipofectamine 2000 (Invitrogen, cat. #11668-019). The DNA was comprised of a mixture (per 10 cm dish) containing 3 ug AAK1/HA/pIRES (full length human, NCBI accession no. NP_055726.2), 45 μg Flag/AP2MI/pcDNA (full length human), and 1.5 ml OPTI-MEM. The Lipofectamine 2000 is made up of a mixture (per 10 cm dish) containing 144 μl Lipofectamine 2000 and 1.5 ml OPTI-MEM. Each mixture was transferred to individual 15 ml tubes and incubated at RT for 5 minutes, and then the two mixes were combined and incubated at RT for 20 minutes. Growth media was then aspirated from each 10 cm plate and replaced with 10 ml of DMEM+10% FBS (no GPS). Finally, 3 ml DNA/Lipofectamine mix was added to each 10 cm dish and mix gently followed by incubate of plate overnight at 37° C. and 5% CO2.
On day three, compounds were diluted in 100% DMSO at 1000× final concentration, followed by 3-fold serial dilutions for a total of 5 concentrations tested. Four compounds were tested per 10 cm dish. One ul of each compound dilution was then pipetted into a deep-well, 96-well plate, followed by addition of 500 μl DMEM+0.5% FBS into each well for a 2× final concentration of each compound. Cells were resuspended in a 10 cm dish by simple pipetting (HEK293 cells come off the plate that easy at this point) and then transferred to a 50 ml conical tube and pelleted by centrifugation at 1000 rpm for 5 min. Cell pellets were then resuspended in 2.75 ml DMEM+0.5% FBS per 10 cm dish and 100 μl of cell suspension transferred into each well of 96-well TC plate. Finally, 100 μl of 2× compound diluted in DMEM+0.5% FBS was then added into wells containing cell suspension for a 1× final concentration. Plates were then incubated at 37° C. and 5% CO2 for 3 hours followed by transferring of cell suspensions from each well into 12-tube PCR strips. The PCR strips were spun in a tip rack at 1000 rpm for 5 minutes to pellet cells and media was then removed by pipetting without disturbing the cell pellet.
To prepare for Western Blot analysis, cell pellets were resuspend in 40 ul 1×LDS-PAGE sample buffer (Invitrogen, cat. # NP0008)+2× Halt phosphatase and protease inhibitor cocktail (Thermo Scientific, cat. #1861284), followed by sonicating each with microtip sonicator set at 5 for 8-10 seconds. Five ul of 10× NuPage Sample Reducing Agent (with […]) was to each sample followed by heat denaturing at 70 C for 10 min on PCR machine. A total of 10 μl per sample was loaded into each lane of a 4-20% Tris-Glycine Criterion 26-well gel (Biorad, cat. #345-0034) for the phospho-mu2 blot and 10 μl per lane in a 4-12% Bis-Tris (+MES buffer) NuPAGE 26-well gel (Invitrogen, cat. # WG1403BX10) for the mu2 blot. For controls, 2 ng of phospho-mu2 or 20 ng mu2/Flag proteins were loaded in the last well of each gel. After SDS-PAGE, samples on each gel were transferred to PVDF membrane using an iBlot and membranes were blocked for one hour in TBST+5% milk, followed by wash 3× for 5-10 min with TBST. Criterion gels were probed with rabbit anti-phospho-mu2 (1:5000; a rabbit polyclonal antibody produced by New England Peptide and affinity purified at Lexicon) in TBST+5% BSA, whereas, NuPAGE gels were probed with mouse anti-Flag (1:500; Sigma, cat. # F1804) in TBST+5% milk, and these primary antibodies were incubated overnight at 4° C. on a rocker. […]

T1 sequence (Q2M2I8 whole entry): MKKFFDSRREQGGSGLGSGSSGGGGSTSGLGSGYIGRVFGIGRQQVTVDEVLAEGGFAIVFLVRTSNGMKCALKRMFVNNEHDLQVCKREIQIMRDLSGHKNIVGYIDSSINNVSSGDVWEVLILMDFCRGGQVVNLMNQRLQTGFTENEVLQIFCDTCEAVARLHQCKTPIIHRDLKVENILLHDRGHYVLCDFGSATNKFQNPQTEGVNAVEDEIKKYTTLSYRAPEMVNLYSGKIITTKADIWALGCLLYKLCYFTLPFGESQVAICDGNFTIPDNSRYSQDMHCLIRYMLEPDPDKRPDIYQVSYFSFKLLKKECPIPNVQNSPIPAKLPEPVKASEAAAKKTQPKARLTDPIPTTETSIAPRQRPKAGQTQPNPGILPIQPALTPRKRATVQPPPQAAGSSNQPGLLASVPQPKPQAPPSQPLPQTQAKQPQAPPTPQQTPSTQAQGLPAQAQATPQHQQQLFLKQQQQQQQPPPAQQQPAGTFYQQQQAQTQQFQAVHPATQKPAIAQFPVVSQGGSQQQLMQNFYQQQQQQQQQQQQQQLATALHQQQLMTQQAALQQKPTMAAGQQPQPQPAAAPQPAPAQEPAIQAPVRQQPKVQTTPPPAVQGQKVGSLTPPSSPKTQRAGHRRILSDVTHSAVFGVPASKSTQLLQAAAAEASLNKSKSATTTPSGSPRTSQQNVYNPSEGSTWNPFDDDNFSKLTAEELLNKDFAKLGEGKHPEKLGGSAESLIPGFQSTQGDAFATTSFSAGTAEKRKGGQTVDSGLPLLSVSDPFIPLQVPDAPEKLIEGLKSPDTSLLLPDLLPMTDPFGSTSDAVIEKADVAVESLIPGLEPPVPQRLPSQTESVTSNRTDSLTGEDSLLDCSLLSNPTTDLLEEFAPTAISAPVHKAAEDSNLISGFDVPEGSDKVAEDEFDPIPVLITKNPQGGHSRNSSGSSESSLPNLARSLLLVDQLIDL
T2 sequence (Q2M2I8 whole entry): as above

Row | SMILES | IC50 (GST-Xa-hAAK1; given as IC50 range) [nM] | IC50 [1] [nM] | IC50 (GST-Xa-hAAK1) [nM] | IC50 ([1]; given as IC50 range) [nM]
1 | CCc1cc2c3ccncc3c(=O)n(C)c2cc1OC[C@@H](N)CC(C)C [Example 46, (S)-8-(2-amino-4-methylpentyloxy)-9-ethyl-6-methylbenzo[c][2,7]naphthyridin-5(6H)-one] | 1 to 10 | 3.1 |  | 
2 | CC(C)C[C@H](N)COc1ccc2c3ccnc(N)c3c(=O)n(C)c2c1 [Example 17, (S)-4-amino-8-(2-amino-4-methylpentyloxy)-6-methylbenzo[c][2,7]naphthyridin-5(6H)-one] |  |  | 3 | 1 to 10
3 | Cc1nccc2c1c(=O)n(C)c1cc(OC[C@H](N)CC(C)C)c(C#N)cc21 [Example 78, (R)-8-(2-amino-4-methylpentyloxy)-4,6-dimethyl-5-oxo-5,6-dihydrobenzo[c][2,7]naphthyridine-9-carbonitrile] |  |  | 0.8 | 1 to 10
4 | CC(C)C[C@H](N)COc1cc2c(cc1Br)c1ccncc1c(=O)n2C [Example 3, (S)-8-((2-amino-4-methylpentyl)oxy)-9-bromo-6-methylbenzo[c][2,7]naphthyridin-5(6H)-one] |  | 1.6 | 2.7 | 
5 | Cc1nccc2c1c(=O)[nH]c1cc(OC[C@@H](N)CC(C)C)c(F)cc12 [Example 101, (S)-8-(2-amino-4-methylpentyloxy)-9-fluoro-4-methylbenzo[c][2,7]naphthyridin-5(6H)-one] | 1 to 10 | 5.2 |  | 
6 | Cc1nccc2c1c(=O)n(C)c1cc(OCC(C)(N)CC(C)C)ccc21 (stereo not drawn) [Example 32, 8-((2-amino-2,4-dimethylpentyl)oxy)-4,6-dimethylbenzo[c][2,7]naphthyridin-5(6H)-one] |  |  | 3.9 | 10 to 100
7 | CC(C)C[C@H](N)COc1cc2c(cc1-c1cnco1)c1ccncc1c(=O)n2C [Example 48, (S)-8-(2-amino-4-methylpentyloxy)-6-methyl-9-(oxazol-5-yl)benzo[c][2,7]naphthyridin-5(6H)-one] | 1 to 10 | 1.8 |  | 
8 | Cc1nccc2c1c(=O)n(C)c1cc(OC[C@](C)(N)CC(C)C)ccc21 (single isomer, unassigned) [Example 37] |  |  | 3.9 | 10 to 100
9 | Cc1nccc2c1c(=O)n(C)c1cc(OC[C@@H](N)CC(C)C)c(Cl)cc21 [Example 62, (S)-8-((2-amino-4-methylpentyl)oxy)-9-chloro-4,6-dimethylbenzo[c][2,7]naphthyridin-5(6H)-one] | 1 to 10 |  |  | 1 to 10
10 | Cc1nccc2c1c(=O)n(C)c1cc(OC[C@@H](N)CC(C)C)c(-c3cncs3)cc21 [Example 83, (S)-8-(2-amino-4-methylpentyloxy)-4,6-dimethyl-9-(thiazol-5-yl)benzo[c][2,7]naphthyridin-5(6H)-one] | 1 to 10 |  |  | 1 to 10
11 | Cc1nccc2c1c(=O)n(C)c1cc(OC[C@@H](N)CC(C)C)c(C(F)(F)F)cc21 [Example 75, (S)-8-(2-amino-4-methylpentyloxy)-4,6-dimethyl-9-(trifluoromethyl)benzo[c][2,7]naphthyridin-5(6H)-one] | 1 to 10 |  |  | 1 to 10
12 | Cc1nccc2c1c(=O)n(C)c1cc(OC[C@@H](N)CC3CC3)c(Cl)cc21 [Example 23, (S)-8-(2-amino-3-cyclopropylpropoxy)-9-chloro-4,6-dimethylbenzo[c][2,7]naphthyridin-5(6H)-one] |  |  | 0.12 | 1 to 10
13 | Cc1nccc2c1c(=O)n(C)c1cc(OC[C@@H](N)CC(C)C)ccc21 [Example 16, (S)-8-((2-amino-4-methylpentyl)oxy)-4,6-dimethylbenzo[c][2,7]naphthyridin-5(6H)-one] | 10 to 100 |  |  | 10 to 100
14 | CC(C)C[C@H](N)COc1cc2c(cc1C(C)C)c1ccncc1c(=O)n2C [Example 47, (S)-8-(2-amino-4-methylpentyloxy)-9-isopropyl-6-methylbenzo[c][2,7]naphthyridin-5(6H)-one] |  |  | 4.5 | 10 to 100
15 | Cc1nccc2c1c(=O)n(C)c1cc(OCC(C)(N)CC(C)C)c(Cl)cc21 (stereo not drawn) [Example 41, 8-((2-amino-2,4-dimethylpentyl)oxy)-9-chloro-4,6-dimethylbenzo[c][2,7]naphthyridin-5(6H)-one] |  | 3.3 | 0.64 | 
16 | Cc1nccc2c1c(=O)n(C)c1cc(OC[C@@H](N)CC(C)C(F)(F)F)ccc21 (single isomer, unassigned) [Example 88] | 1 to 10 |  |  | 10 to 100
17 | Cc1nccc2c1c(=O)n(C)c1cc(OC[C@@H](N)CC3CCC3)c(Cl)cc21 [Example 24, (S)-8-(2-amino-3-cyclobutylpropoxy)-9-chloro-4,6-dimethylbenzo[c][2,7]naphthyridin-5(6H)-one] | 1 to 10 |  |  | 1 to 10
18 | Cc1nccc2c1c(=O)n(C)c1cc(OCC(N)CCC(F)(F)F)c(C#N)cc21 (stereo not drawn) [Example 73, 8-(2-amino-5,5,5-trifluoropentyloxy)-4,6-dimethyl-5-oxo-5,6-dihydrobenzo[c][2,7]naphthyridine-9-carbonitrile] | 1 to 10 |  |  | 1 to 10
19 | Cn1c(=O)c2cnccc2c2ccc(OCC(N)CCC(F)(F)F)cc21 (stereo not drawn) [Example 15, 8-(2-amino-5,5,5-trifluoropentyloxy)-6-methylbenzo[c][2,7]naphthyridin-5(6H)-one] | 10 to 100 |  |  | 10 to 100
20 | Cc1nccc2c1c(=O)n(C)c1cc(OC[C@@H](N)CC(C)C)c(-c3cnco3)cc21 [Example 72, (S)-8-(2-amino-4-methylpentyloxy)-4,6-dimethyl-9-(oxazol-5-yl)benzo[c][2,7]naphthyridin-5(6H)-one] | < 1 |  |  | < 1
21 | Cc1nccc2c1c(=O)n(C)c1cc(OC[C@@H](N)CC(C)C)c(F)cc21 [Example 70, (S)-8-(2-amino-4-methylpentyloxy)-9-fluoro-4,6-dimethylbenzo[c][2,7]naphthyridin-5(6H)-one] | 1 to 10 |  |  | 1 to 10
22 | CC(C)C[C@H](N)COc1cc2c(cc1F)c1ccncc1c(=O)n2C [Example 14, (S)-8-((2-amino-4-methylpentyl)oxy)-9-fluoro-6-methylbenzo[c][2,7]naphthyridin-5(6H)-one] |  |  | 7 | 1 to 10
23 | Cc1nccc2c1c(=O)n(C)c1cc(OC[C@@H](N)CC=C(F)F)c(C#N)cc21 [Example 106, (S)-8-((2-amino-5,5-difluoropent-4-en-1-yl)oxy)-4,6-dimethyl-5-oxo-5,6-dihydrobenzo[c][2,7]naphthyridine-9-carbonitrile] | < 1 |  |  | < 1
24 | Cc1nccc2c1c(=O)n(C)c1cc(OC(C)[C@@H](N)CC(C)C)ccc21 (mixture of isomers) [Example 33, 8-(((2S,3S)-3-amino-5-methylhexan-2-yl)oxy)-4,6 dimethylbenzo[c][2,7]naphthyridin-5(6H)-one] | 10 to 100 | 11 |  | 
